In ChEMBL document CHEMBL1201862, “PubChem BioAssay data set” (2004):
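Cultured in 96-well plates, cells were exposed to test compound for 48 hours across five concentrations. The concentration for 50% growth inhibition is given as GI50.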 Calls of active or inactive are those of the source. Rule as the data show it: active = GI50 up to about 1.1 µM and inactive = higher.

What was measured:
Assay in all cases: NCI anticancer screen, dose series, 48 h
786-0 = test system: 786-0
A498 = test system: A498
A549 = test system: A549
ACHN = test system: ACHN
BT-549 = test system: BT-549
DU-145 = test system: DU-145
EKVX = test system: EKVX
HCT-116 = test system: HCT-116
HCT-15 = test system: HCT-15
HOP-62 = test system: HOP-62
HOP-92 = test system: HOP-92
HT-29 = test system: HT-29
Hs-578T = test system: Hs-578T
IGROV-1 = test system: IGROV-1
K562 = test system: K562
KM12 = test system: KM12
LOX IMVI = test system: LOX IMVI
M14 = test system: M14
MCF7 = test system: MCF7
MDA-MB-231 = test system: MDA-MB-231
MDA-MB-435 = test system: MDA-MB-435
MDA-N = test system: MDA-N
MOLT-4 = test system: MOLT-4
NCI-H226 = test system: NCI-H226
NCI-H460 = test system: NCI-H460
NCI-H522 = test system: NCI-H522
NCI/ADR-RES = test system: NCI/ADR-RES
OVCAR-3 = test system: OVCAR-3
OVCAR-4 = test system: OVCAR-4
OVCAR-5 = test system: OVCAR-5
OVCAR-8 = test system: OVCAR-8
PC-3 = test system: PC-3
RPMI-8226 = test system: RPMI-8226
SF-268 = test system: SF-268
SF-295 = test system: SF-295
SF-539 = test system: SF-539
SK-MEL-28 = test system: SK-MEL-28
SK-MEL-2 = test system: SK-MEL-2
SK-OV-3 = test system: SK-OV-3
SN12C = test system: SN12C
SNB-19 = test system: SNB-19
SNB-75 = test system: SNB-75
SW-620 = test system: SW-620
T47D = test system: T47D
TK-10 = test system: TK-10
U-251 = test system: U-251
UACC-257 = test system: UACC-257
UACC-62 = test system: UACC-62
UO-31 = test system: UO-31
CAKI-1 = test system: CAKI-1
CCRF-CEM = test system: CCRF-CEM
COLO 205 = test system: COLO 205
HCC 2998 = test system: HCC 2998
Malme-3M = test system: Malme-3M
NCI-H23 = test system: NCI-H23
RXF 393 = test system: RXF 393
SK-MEL-5 = test system: SK-MEL-5
HL-60 = test system: HL-60

Measured: GI50

C[C@H](C/C=C/C(C)(C)O)[C@H]1CC[C@@]2(C)[C@@H]3CC[C@H]4C(C)(C)[C@@H](O)CC[C@@]45C[C@@]35CC[C@]12C
inactive: 786-0 20.9 µM | A498 21 µM | A549 14.7 µM | ACHN 6.35 µM | BT-549 34.1 µM | DU-145 15.4 µM | EKVX 14.1 µM | HCT-116 18.2 µM | HOP-62 13.6 µM | HOP-92 11.3 µM | HT-29 26 µM | Hs-578T 11.2 µM | IGROV-1 22.4 µM | K562 6.31 µM | KM12 24.7 µM | LOX IMVI 11.7 µM | M14 17.8 µM | MCF7 35.2 µM | MDA-MB-231 15.4 µM | MDA-MB-435 20.5 µM | MDA-N 34.1 µM | MOLT-4 9.91 µM | NCI-H226 17.1 µM | NCI-H460 23 µM | NCI-H522 2.37 µM | NCI/ADR-RES 5.14 µM | OVCAR-3 50.5 µM | OVCAR-4 16.9 µM | OVCAR-5 14.4 µM | OVCAR-8 14.8 µM | PC-3 26.3 µM | RPMI-8226 15.8 µM | SF-268 1.94 µM | SF-295 16.6 µM | SF-539 16.8 µM | SK-MEL-28 18.8 µM | SK-MEL-2 17.3 µM | SK-OV-3 32.1 µM | SN12C 13 µM | SNB-19 25.5 µM | SNB-75 20.3 µM | SW-620 18.4 µM | T47D 27 µM | TK-10 13 µM | U-251 17.4 µM | UACC-257 17.9 µM | UACC-62 26.1 µM | UO-31 23.3 µM
17.1 µM: HCT-15

CC1(C)Oc2ccc3c(=O)c(-c4ccccc4)c(-c4ccccc4)oc3c2C1C(=O)O (stereo unspecified)
33.3 µM: HCT-15
inactive: 786-0 > 100 µM | A498 > 100 µM | A549 > 100 µM | BT-549 > 100 µM | CAKI-1 > 100 µM | CCRF-CEM > 100 µM | COLO 205 > 100 µM | DU-145 > 100 µM | EKVX > 100 µM | HCC 2998 > 100 µM | HCT-116 > 100 µM | HOP-62 > 100 µM | HT-29 > 100 µM | Hs-578T 64.9 µM | IGROV-1 > 100 µM | K562 63 µM | M14 > 100 µM | MCF7 > 100 µM | MDA-MB-231 > 100 µM | MDA-MB-435 > 100 µM | MDA-N > 100 µM | MOLT-4 48.3 µM | Malme-3M > 100 µM | NCI-H226 > 100 µM | NCI-H23 > 100 µM | NCI-H522 > 100 µM | NCI/ADR-RES > 100 µM | OVCAR-3 > 100 µM | OVCAR-4 77.1 µM | OVCAR-5 > 100 µM | OVCAR-8 > 100 µM | PC-3 > 100 µM | RXF 393 > 100 µM | SF-268 > 100 µM | SF-295 > 100 µM | SF-539 > 100 µM | SK-MEL-2 > 100 µM | SK-MEL-5 > 100 µM | SK-OV-3 > 100 µM | SN12C > 100 µM | T47D > 100 µM | TK-10 > 100 µM | U-251 > 100 µM | UACC-257 > 100 µM | UACC-62 > 100 µM

CCOC(=O)c1[nH]c2nc(SC)nc(Nc3ccccc3Cl)c2c1N
inactive: 786-0 20.2 µM | A498 12.6 µM | A549 13.2 µM | ACHN 18.3 µM | BT-549 20 µM | CAKI-1 25.5 µM | CCRF-CEM 15.3 µM | COLO 205 28.9 µM | DU-145 23.2 µM | HCC 2998 27.4 µM | HCT-116 15.6 µM | HOP-62 18.3 µM | HT-29 11.7 µM | Hs-578T 20.1 µM | IGROV-1 26.9 µM | K562 13.9 µM | KM12 31.3 µM | LOX IMVI 11.8 µM | M14 37.8 µM | MDA-MB-231 16.6 µM | MDA-MB-435 31.6 µM | MDA-N 30.5 µM | MOLT-4 8.55 µM | Malme-3M 24.3 µM | NCI-H226 15.3 µM | NCI-H23 19.2 µM | NCI-H460 11.6 µM | NCI-H522 16.8 µM | NCI/ADR-RES 18.8 µM | OVCAR-3 20.7 µM | OVCAR-4 14.6 µM | OVCAR-5 19.6 µM | OVCAR-8 16 µM | PC-3 15.7 µM | RPMI-8226 15.2 µM | RXF 393 12.4 µM | SF-268 19.8 µM | SF-295 21 µM | SK-MEL-28 31.3 µM | SK-MEL-2 29 µM | SK-MEL-5 6.21 µM | SK-OV-3 21.4 µM | SN12C 36.2 µM | SNB-19 17.5 µM | SNB-75 16.2 µM | SW-620 27.2 µM | T47D 13.1 µM | TK-10 22.5 µM | U-251 13.9 µM | UACC-257 33.6 µM | UACC-62 16.6 µM | UO-31 15.7 µM
35.3 µM: HCT-15

N#C/C(=N/Nc1[nH]cnc1C(N)=O)C(=O)Nc1ccccc1
inactive: 786-0 22.8 µM | A549 > 100 µM | ACHN 15.2 µM | BT-549 > 100 µM | CCRF-CEM 3.23 µM | COLO 205 16.5 µM | DU-145 6.3 µM | EKVX 65.5 µM | HCC 2998 9.89 µM | HCT-116 14.3 µM | HL-60 28.9 µM | HOP-62 6.18 µM | HT-29 48.6 µM | Hs-578T 67.8 µM | IGROV-1 4.55 µM | K562 1.52 µM | KM12 13.9 µM | M14 4.99 µM | MCF7 54 µM | MDA-MB-231 32.3 µM | MDA-MB-435 22.1 µM | MDA-N 12.9 µM | MOLT-4 4.88 µM | Malme-3M 5.48 µM | NCI-H226 27 µM | NCI-H23 56.8 µM | NCI-H460 37.6 µM | NCI-H522 7.71 µM | NCI/ADR-RES 3.45 µM | OVCAR-3 5.41 µM | OVCAR-4 14.6 µM | OVCAR-5 34.6 µM | OVCAR-8 3.23 µM | PC-3 7.89 µM | RPMI-8226 2.16 µM | RXF 393 59.4 µM | SF-268 8.17 µM | SF-295 17.5 µM | SK-MEL-28 88.5 µM | SK-MEL-2 5.27 µM | SK-MEL-5 58.5 µM | SK-OV-3 4.66 µM | SN12C 4.71 µM | SNB-19 > 100 µM | SNB-75 24.5 µM | SW-620 12.5 µM | T47D 56.6 µM | TK-10 18.5 µM | U-251 > 100 µM | UACC-257 76.2 µM | UACC-62 9.18 µM | UO-31 3.43 µM
35.5 µM: HCT-15

c1ccc2c(CN3CCC(C4CCN(Cc5cccc6ccccc56)CC4)CC3)cccc2c1
inactive: 786-0 16.3 µM | A549 62.7 µM | ACHN 33.3 µM | BT-549 > 56 µM | COLO 205 1.77 µM | DU-145 86.1 µM | HCC 2998 1.77 µM | HL-60 3.01 µM | HOP-62 25.4 µM | HT-29 3.28 µM | Hs-578T 32.1 µM | K562 1.6 µM | M14 1.98 µM | MCF7 26.5 µM | MDA-MB-231 21.4 µM | MDA-MB-435 3.52 µM | MDA-N 8.13 µM | MOLT-4 5.27 µM | Malme-3M 3.47 µM | NCI-H460 16.3 µM | NCI-H522 8.53 µM | NCI/ADR-RES 38.3 µM | OVCAR-3 > 58.6 µM | PC-3 32.8 µM | RPMI-8226 2.57 µM | RXF 393 21.8 µM | SF-295 6.28 µM | SK-MEL-2 8.41 µM | SK-MEL-5 4.89 µM | SK-OV-3 28 µM | T47D 23.1 µM | TK-10 20.1 µM | U-251 16.5 µM | UACC-257 3.48 µM | UACC-62 7.43 µM
